Assay results from US8778971B2, “Medicinal treatment of dermal diseases in companion animals” (Bridge Pharma, Inc., priority 2012, dated 2014).
Marks after values point to notes of the source that are not given here.

Key:
[1] = biological target: histamine H1-receptors (Homo sapiens, UniProt P35367); test: H1 receptor binding, [3H]pyrilamine ligand; settings: human recombinant receptors, read-out: H-1/IC50
Experimental: H1 receptor binding studies were conducted utilizing human recombinant receptors. In the studies shown herein, affinities of the test compounds for histamine H1-receptors were assessed using a binding assay, where [^3H]pyrilamine was used as the ligand and the test compounds were used at increasing concentrations. The specific binding of the radioactive ligand to the receptor was defined as the difference between total binding and nonspecific binding, determined in the presence of excess unlabeled ligand.

[2] = system: histamine-induced wheal response; test: Antihistaminic activity in vivo, intradermal histamine wheal; design: species or system rats; settings: rat; for Histamine wheal area: 60 min before histamine; for Saline wheal area: histamine vehicle injection; for Histamine effect: histamine minus saline
Experimental: Male rats (150-200 g) were fasted overnight and twelve hours after dorsal depilation, the animals were orally pretreated with the test compound(s). Four dorsal test areas were marked with permanent ink, carefully avoiding the area closest to the spine. […] Two intradermal injections of the vehicle for the histamine solution were also performed. […] Twenty minutes were allowed for the wheal response to fully develop, whereupon the animals were euthanized and the dorsal skin with the intradermal wheals were deflected. The blue spotted areas were measured in square millimeters and the duplicate wheal areas were averaged. […] The inhibition was calculated in percent difference from said baseline values.

[3] = system: human leukocytes (buffy coat); test: Inhibition of A23187-stimulated histamine release from leukocytes; assay type: cell-based
Experimental: In these studies, histamine was the marker compound for inflammatory mediators that are released from mast cells and other pro-inflammatory cells in patients with atopic inflammatory diseases. The inhibition of stimulated histamine release from human leukocytes (buffy coat) by test articles was studied. Leukocytes were obtained from healthy volunteers and histamine release was induced by incubation (20 min/37° C.) with the calcium ionophore A23187 (5 μM) in the presence or absence of a test article. Histamine was analyzed by enzyme-immune assays, using commercially available kits and a microplate reader (MRX, Dynatech). The test articles were evaluated, in duplicate, at five concentrations.

[4] = system: dogs; test: Sedative effects in dogs, cross-over oral dosing; assay type: in vivo; settings: for Frequency of sedation: 20 mg/kg/day oral
Experimental: Sedation studies in dogs were performed according to a cross-over protocol, where the dogs were administered once daily the test articles orally at a dose of 20 mg/kg bodyweight that in a previous toxicology study was marginally toxic in dogs with equal plasma concentrations of R-norketotifen and S-norketotifen.
The test articles were administered in gelatin capsules and vehicle-capsules were empty. All dogs were healthy beagles (four males and two females), age 24-36 months, weighing 7.8-10.6 kg. The dogs were dosed at 9-10 AM and had been fasted overnight before dosing. There was a washout period of at least three days in all dogs between the tests. All assessments of sedation/sleepiness were made by a qualified (D.V.M.) scientist with extensive experience (>15 years) in studies with conscious laboratory dogs. The test articles were in the form of hydrogen fumarate salts.
It had previously been observed that dogs rarely express sedation in response to oral administration of benzocycloheptathiophene compounds on the first day of dosing and the dogs were therefore administered the test articles for three consecutive days.

[5] = system: rats; test: Acute toxicity, Up-and-Down Procedure; assay type: in vivo; settings: RAT, hydrogen fumarate salts
Experimental: Acute toxicological studies were performed in rats (Sprague-Dawley; M and F; 200-250 grams). The animal-sparing Up-and-Down Procedure (FDA, OECD) was used. Both oral and intravenous toxicity tests were performed.
Both compounds were administered as hydrogen fumarate salts.

[6] = system: croton oil-treated ears; test: Modified croton oil ear inflammation, topical cream; assay type: in vivo; settings: mice, 1.0% cream topical
Experimental: In order to investigate the effects of topical administration of the test compounds in dermal inflammation, a modified croton oil model was used. […] The cream was then removed and a solution of 1% croton oil in 20 μl acetone was applied to both ears. […] Cream was wiped from the ears and ears were removed and weighed. […] All results represent mean ear weights (±S.E.M.) from 8 ears.

[7] = system: histamine-induced pruritus; test: Histamine-induced pruritus, topical cream; assay type: in vivo; settings: mice, 1.0% cream topical 60 min before histamine
Experimental: Antipruritic effects were tested in vivo in CD-1 female mice aged 10-12 weeks, according to methods known in the art. The hair was clipped over the rostral part of the back at the interscapular level of the mice one day before dosing. Before testing, the mice were placed in individual clear plastic cages for at least one hour for acclimation. […] Lanolin was weighed and liquified by submerging the vessel containing lanolin in hot water. While the lanolin was liquid, it was rapidly nixed (by vortexing) with the 2.5% norketotifen solution in ethanol, resulting in a 1.0% solution. […] A cream containing 60% lanolin/40% ethanol served as control.

[8] = system: Malassezia pachydermatis; test: Antimicrobial test, Malassezia study; assay type: cell-based; settings: after 24 hours
Experimental: The test article (norketotifen) was weighed and diluted into PBS to final concentrations of 0.210% and 0.035% before use. A 5 mL volume of the Test Article was aliquoted to a sterile 15 mL tube and the Malassezia sp (for example M. pachydermatis) were added at target concentrations of approx. 1.0×10^6 CFU/mL. The resulting mixture was vortexed thoroughly and incubated at room temperature for 7 days. A 0.500 mL aliquot of control and test tubes were harvested in 9.5 mL of D/E broth and any surviving test microorganisms were enumerated per standard dilution and plating techniques. Reductions were compared to a PBS Control at Time Zero and replicate tests were performed.

[9] = Solubility of norketotifen in non-aqueous solvents; assay type: physicochemical
Experimental: The hydrophobic ointment was prepared by dissolving norketotifen in propylene glycol. […] Next, glyceryl stearate, cetyl alcohol, and white petrolatum were added to a suitable container and heated to 65-70° C. This heating step melts the surfactants and the petrolatum. Next, norketotifen solution was slowly added and the composition mixed until the solvent was dispersed. Finally, the composition was cooled with mixing to allow the ointment to thicken.

Chain of histamine H1-receptors (P35367 whole entry): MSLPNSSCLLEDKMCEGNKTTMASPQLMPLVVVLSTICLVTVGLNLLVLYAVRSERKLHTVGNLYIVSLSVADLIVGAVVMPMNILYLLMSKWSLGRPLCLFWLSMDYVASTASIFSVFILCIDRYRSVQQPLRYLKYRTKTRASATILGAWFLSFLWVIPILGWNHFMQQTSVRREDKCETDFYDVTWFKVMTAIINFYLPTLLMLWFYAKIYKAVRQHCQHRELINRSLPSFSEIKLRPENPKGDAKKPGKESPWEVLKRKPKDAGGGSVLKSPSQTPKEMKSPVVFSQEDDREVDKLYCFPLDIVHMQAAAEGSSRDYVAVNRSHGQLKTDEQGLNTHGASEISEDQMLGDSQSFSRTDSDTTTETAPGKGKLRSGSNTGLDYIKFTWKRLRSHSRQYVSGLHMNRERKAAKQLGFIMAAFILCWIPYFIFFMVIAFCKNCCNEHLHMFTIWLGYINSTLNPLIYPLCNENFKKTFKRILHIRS

For O=C1Cc2ccccc2C(=C2CCNCC2)c2ccsc21 (racemic) [Norketotifen, (RS)-4-(piperidylidene)-9,10-dihydro-4H-benzo-(4,5)-cyclohepta-(1,2-b) thiophene-10-one], which IC50 [1] is on record?
The IC50 was 0.011 µM.

And the Histamine wheal area ([2]; oral 1.0 mg/kg)?
The Histamine wheal area was 114 ± 8 mm^2.

What about the Saline wheal area ([2]; oral 1.0 mg/kg) of the same compound?
Its Saline wheal area is 22 ± 1 mm^2.

What about the Histamine effect ([2]; oral 1.0 mg/kg) of the same compound?
The Histamine effect was 92 mm^2.

And the inhibition at 1 mg/kg ([2]; oral 1.0 mg/kg, versus vehicle baseline)?
Its inhibition at 1 mg/kg is 2%.

What about the Histamine wheal area ([2]; oral 10 mg/kg) of the same compound?
The Histamine wheal area was 39 ± 2 mm^2.

And the Saline wheal area ([2]; oral 10 mg/kg)?
Its Saline wheal area is 22 ± 1 mm^2.

What about the Histamine effect ([2]; oral 10 mg/kg) of the same compound?
The Histamine effect was 17 mm^2.

And the inhibition at 10 mg/kg ([2]; oral 10 mg/kg, versus vehicle baseline)?
The inhibition at 10 mg/kg was 82%.

And the Histamine wheal area ([2]; oral 50 mg/kg)?
Its Histamine wheal area is 10 ± 1 mm^2.

And the Saline wheal area ([2]; oral 50 mg/kg)?
Its Saline wheal area is 12 ± 1 mm^2.

And the Histamine effect ([2]; oral 50 mg/kg)?
Its Histamine effect is 0 mm^2.

And the inhibition at 50 mg/kg ([2]; oral 50 mg/kg, versus vehicle baseline)?
The inhibition at 50 mg/kg was 100%.

What about the IC50 ([3]; Homo sapiens, Leukocyte, 20 min, A23187 5 μM, 20 min/37° C., read-out: Inhibition of inflammatory mediator (histamine) release, IC50) of the same compound?
The IC50 was 9.2 µM.

What about the “Times more potent than ketotifen as inhibitor of histamine release” value ([3]; pro-inflammatory cells) of the same compound?
Its value is “approximately 10 times”.

What about the Frequency of sedation ([4]; DAY 1) of the same compound?
The Frequency of sedation was 0/6.

And the Frequency of sedation ([4]; DAY 2)?
Its Frequency of sedation is 0/6.

What about the Frequency of sedation ([4]; DAY 3) of the same compound?
The Frequency of sedation was 0/6.

What about the “Sedation in dogs (in words)” value ([4]; oral) of the same compound?
The value was “did not cause sedation in dogs”.

What about the “Acute toxicity (estimated LD50)” value ([5]; intravenous) of the same compound?
Its value is 10 to 15 mg/kg.

What about the “Acute toxicity (estimated LD50)” value ([5]; oral) of the same compound?
Its value is 1500 to 2000 mg/kg.

What about the “Average Ear Weight ±S.E.M” value ([6]; 0 (predose) min after croton oil) of the same compound?
Its value is 36 ± 1 mg.

What about the “Average Ear Weight ±S.E.M” value ([6]; 30 min after croton oil) of the same compound?
The value was 36 ± 1 mg.

And the “Average Ear Weight ±S.E.M” value ([6]; 60 min after croton oil)?
Its value is 37 ± 2 mg.

What about the “Average Ear Weight ±S.E.M” value ([6]; 90 min after croton oil) of the same compound?
Its value is 36 ± 2 mg.

What about the “Bouts as % of Vehicle Controls” value [7] of the same compound?
Its value is 42 ** %.

What about the Bouts/40 min [7] of the same compound?
Its Bouts/40 min is 61 ± 4.

And the “Bouts as % of Vehicle Controls” value ([7]; listed as RS-norketotifen)?
The value was 42%.

What about the “Reduction of Malassezia pachydermatis” value ([8]; 0.035% norketotifen) of the same compound?
The value was 99.8%.

What about the “Reduction of Malassezia pachydermatis” value ([8]; 0.2% norketotifen) of the same compound?
The value was 99.995%.

What about the Solubility ([9]; formulation G1009, mixture of two polyethylene glycols) of the same compound?
The Solubility was “about 1.0%”.

And the Solubility ([9]; in propylene glycol)?
The Solubility was “about 1.0%”.
